According to US20240293345A1, “COMBINATIONS OF LOCAL ANESTHETICS FOR IMPROVED PAIN RELIEF” (priority 2021, published 2024):

How the values were obtained:
[1] = Case studies: local anesthesia by injection to the mouth region before dental procedures; type: in vivo, human; details: for anesthetic effect of one local anesthetic alone: cases previously observed by the inventors; for local anesthetic effect / pain relief during dental procedures: patients with a history of poor pain relief after just one local anesthetic, injection to mouth region
Source text: The experiments and disclosures provided herein are based on 9 case studies performed on patients that had, or previously has had phenotype red hair. The inventors performed odontological procedures on the patients and compared pain relief to prior experiences with local anesthetics.
9 patients with a history of poor pain relief after administration of just one local anesthetic received a combination of lidocaine and prilocaine before various dental procedures where performed. The patients pain sensation was the noted in case studies kept at the inventor's clinic.
Commercially available Xylocain Dental Adrenaline (lidocaine HCL 20 mg/mL with epinephrine 12.5 μg/mL) and Citanest Dental Octopressin (prilocaine HCL 30 mg/mL and felypressin 0.54 μg/mL) was administered by injection to mouth region of the patient for pain relief. Both Xylocain Dental Adrenaline and Citanest Dental Octopressin was provided in cartridges containing 1.8 mL of solution comprising active ingredients in said concentrations.

[2] = Local anesthesia for a dislocated shoulder (incident described by patient 192293); type: in vivo, human; details: three attempts of administration, patient's own account
[3] = local anesthesia or nerve blocks; cited from earlier work
[4] = given subcutaneously; cited from earlier work
[5] = in vivo; cited from earlier work

Structure (SMILES) | anesthetic effect of one local anesthetic alone [1] | local anesthetic effect / pain relief during dental procedures [1] | local anesthetic effect / pain relief during dental procedures ([1]; listed as Lidocaine) | pain relief [2] | onset of effect [3] | anesthetic effects in redheads [4] | metabolism and excretion [5]
CCN(CC)CC(=O)Nc1c(C)cccc1C [lidocaine] | did not provide adequate anesthetic effect | Poor effect | not effective | without obtaining adequate pain relief | within several minutes | resistant to the anesthetic effects | –
CCN(CC)CCOC(=O)c1ccc(N)cc1 [novocaine] | – | – | – | – | – | resistant to the anesthetic effects | –
CCCNC(C)C(=O)Nc1ccccc1C (stereo not drawn) [prilocaine] | did not provide adequate anesthetic effect | – | – | – | – | – | rapidly metabolized by the liver and excreted in the urine as o-toluidine
